Patent US12503456B2, “Substituted pyrimidines and 1,3,5-triazines as RHOJ inhibitors” (Fondazione Istituto Italiano Di Tecnologia, priority 2017, dated 2025)
pIC50: −log10 of the molar value. Where two headings read alike, the source gives them in different places.

Experiments:
Format in all cases: cell-based
melanoma cells = experiment: Cell viability assay (Cell Titer-Glo), inhibitor alone or with Cisplatin
Description: Cells were seeded at 10,000 cells/well in 96-well plates and incubated for 24 h at 37° C. with 5% CO2. […] The cell viability was determined using the Cell Titer-Glo luminescent cell viability assay kit (Promega, Madison, WI), according to the manufacturer's instructions. Luminescence was measured using a DTX 800 microplate reader (Coulter). The half-maximal inhibitory concentration (IC50) values were calculated using the GraphPad Prism software. The assay was done by conducting 3 independent experiments.

WM3248 melanoma cells = experiment: Flow cytometric analyses for apoptosis (Annexin V and PI); settings: 24 hours, FIG. 1
Description: Approximately 1×10^6 melanoma cells treated with inhibitors for 24 hours and were then trypsinized and washed with PBS, the single-cell suspensions were incubated with Alexa Fluor-Annexin V and propidium iodide (PI) (V13245; Invitrogen) per the manufacturer's protocol and were subjected to flow cytometric analysis. In all cases, cell debris was gated out on the basis of forward scatter and side scatter analysis. Data was analyzed using FlowJo (Ashland, OR). Results are illustrated in FIG. 1, wherein WM3248 melanoma cells were treated with the indicated doses of compound 1 (ARN12405) and apoptosis was measured by flow cytometry using Annexin V and PI.

RhoJ PAK interaction = molecular target: T1, RhoJ PAK interaction (Homo sapiens, UniProt Q9H4E5); experiment: Cdc42 activation assay (PAK1 PBD bead pull-down, immunoblot); settings: cell lysates from WM3248 cells, PAK coupled beads, FIG. 2
T1 construct: host or cells: WM3248 cells
T1 sequence (Q9H4E5 1-211 limits assumed): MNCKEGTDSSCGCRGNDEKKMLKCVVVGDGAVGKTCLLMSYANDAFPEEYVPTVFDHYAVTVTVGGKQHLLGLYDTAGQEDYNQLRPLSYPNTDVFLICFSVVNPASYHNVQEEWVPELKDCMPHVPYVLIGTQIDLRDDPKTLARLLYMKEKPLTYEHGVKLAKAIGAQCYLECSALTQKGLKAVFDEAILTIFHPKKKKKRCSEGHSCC
Description: A Cdc42 activation assay was performed according the manufacturer's protocol (Cell Biolabs, San Diego, CA). Briefly, cells treated with the inhibitor were lysed and either loaded with GDP or GTPyS. Agarose beads conjugated with the PAK1 PBD domain pulled down Cdc42, Rac1, or RhoJ only when GTP-bound. Lysates were then immunoblotted with indicated Abs. Results are illustrated in FIG. 2. […] Briefly, cells were treated with compound 1 (ARN12405) and cell lysates were prepared and incubated with PAK coupled beads. Immunoprecipitated proteins were subjected to SDS PAGE and immunoblotted with a (A) RhoJ antibody, (B) Cdc42 antibody, (C) Rac1 antibody, (D) Cells were treated with one of a panel of RhoJ interaction inhibitors at a concentration of 10 μm or 50 μm (see FIG. 2, panels A-D). Lysates were prepared, incubated with PAK coupled beads, and immunoprecipitated proteins were immunoblotted with a RhoJ antibody.

[1] = inhibitor (1.25-50 μM) with Cisplatin at 20 μM, 24 hours, Cell Titer-Glo, 3 independent experiments, read-out: IC50 (CisPt)

pIC50 (melanoma cells; [1])	Compound	further results
4.94	Clc1ccc(Nc2cc(-c3cccnc3)nc(C3CCCNC3)n2)cc1 (stereo not shown) [Compound 2]	
4.42	Clc1ccc(Nc2cc(-c3ccccn3)nc(C3CCCNC3)n2)cc1 (stereo not shown) [Compound 3]	
5.15	Clc1ccc(Nc2cc(-c3ccccc3)nc(C3CCCNC3)n2)cc1 (stereo not shown) [Compound 4]	
4.37	Clc1cccc(Nc2cc(-c3ccncc3)nc(C3CCCNC3)n2)c1 (stereo not shown) [Compound 5]	
4.77	COc1ccc(-c2cc(Nc3ccc(Cl)cc3)nc(C3CCCNC3)n2)cc1 (stereo not shown) [Compound 6]	
4.49	Fc1ccc(-c2cc(Nc3ccccc3)nc(C3CCCNC3)n2)cc1 (stereo not shown) [Compound 7]	
4.50	CN(C)c1ccc(Nc2cc(-c3ccccc3)nc(C3CCCNC3)n2)cc1 (stereo not shown) [Compound 8, N1,N1-dimethyl-N4-[6-phenyl-2-(3-piperidyl)pyrimidin-4-yl]benzene-1,4-diamine]	
< 4.30	COc1ccc(Nc2cc(-c3ccccc3)nc(C3CCCNC3)n2)cc1 (stereo not shown) [Compound 9, N-(4-methoxyphenyl)-6-phenyl-2-(3-piperidyl)pyrimidin-4-amine]	pIC50 (melanoma cells; 24 h, read-out: IC50 (alone)): < 4.30
	CN(C)c1cccc(Nc2cc(-c3ccccc3)nc(C3CCCNC3)n2)c1 (stereo not shown) [Compound 10, N3,N3-dimethyl-N1-[6-phenyl-2-(3-piperidyl)pyrimidin-4-yl]benzene-1,3-diamine]	pIC50 (melanoma cells; 24 h, read-out: IC50 (alone)): 4.35
4.56	COc1cccc(Nc2cc(-c3ccccc3)nc(C3CCCNC3)n2)c1 (stereo not shown) [Compound 11, N-(3-methoxyphenyl)-6-phenyl-2-(3-piperidyl)pyrimidin-4-amine]	
	CN(C)c1ccc(Nc2cc(-c3ccccc3)nc(C3CCNCC3)n2)cc1 [Compound 12, N4,N4-dimethyl-N1-[6-phenyl-2-(4-piperidyl)pyrimidin-4-yl]benzene-1,4-diamine]	pIC50 (melanoma cells; 24 h, read-out: IC50 (CisPt)): 4.06
4.44	COc1ccc(Nc2cc(-c3ccccc3)nc(C3CCNCC3)n2)cc1 [Compound 13, N-(4-methoxyphenyl)-6-phenyl-2-(4-piperidyl)pyrimidin-4-amine]	
4.76	CN(C)c1cccc(Nc2cc(-c3ccccc3)nc(C3CCNCC3)n2)c1 [Compound 14, N3,N3-dimethyl-N1-[6-phenyl-2-(4-piperidyl)pyrimidin-4-yl]benzene-1,3-diamine]	
4.65	COc1cccc(Nc2cc(-c3ccccc3)nc(C3CCNCC3)n2)c1 [Compound 15, N-(3-methoxyphenyl)-6-phenyl-2-(4-piperidyl)pyrimidin-4-amine]	
< 4.30	CN(C)c1ccc(Nc2cc(-c3ccccc3)nc(C3CCOCC3)n2)cc1 [Compound 16, N4,N4-dimethyl-N1-(6-phenyl-2-tetrahydropyran-4-yl-pyrimidin-4-yl)benzene-1,4-diamine]	pIC50 (melanoma cells; 24 h, read-out: IC50 (alone)): < 4.30
< 4.30	COc1ccc(Nc2cc(-c3ccccc3)nc(C3CCOCC3)n2)cc1 [Compound 17, N-(4-methoxyphenyl)-6-phenyl-2-tetrahydropyran-4-yl-pyrimidin-4-amine]	pIC50 (melanoma cells; 24 h, read-out: IC50 (alone)): < 4.30

Compound	pIC50 (melanoma cells; [1])	further results
Clc1ccc(Nc2cc(-c3ccncc3)nc(C3CCCNC3)n2)cc1 (stereo not shown) [Compound 1]	4.89	apoptosis measured by flow cytometry using AnnexinV and PI (WM3248 melanoma cells): apoptosis induced; RhoJ PAK interaction in cell lysates (SDS PAGE and immunoblotting) (RhoJ PAK interaction): block of RhoJ PAK interaction
